The subject of assay [1] is EP4 receptor. As to the kind of experiment: EP4 receptor mRNA expression in FSH-pretreated MGCs. Particulars: 10 μM PGE2, 24 hours. It is filed as cell-based, human.
For assay [2], the system named is EP receptor. In words: Intracellular cAMP in MGCs after PGE2 pretreatment (EP receptor desensitization). Particulars: pretreated with 10 μM PGE2 10 min, washed, 10 μM PGE2 additional 10 min. The assay is classed as cell-based, human. The protocol:
Inhibition of PGT activity or the provision of excess PGE2 results in the desensitization of the prostaglandin receptors […] and EP4 and thereby in a reduction in PGE2 signaling. An important second messenger for PGE2 is intracellular cAMP resulting from activation of either EP2 or EP4 receptor by PGE2. Thus, the hypothesis that excess PGE2 results in reduced PG signaling in human granulosa cells was tested. MGCs were incubated with 10 μM PGE2 for 10 min or pretreated with 10 μM PGE2 for 10 min, washed and then treated with 10 μM PGE2 for additional 10 min cAMP levels were measured in the cell lysate and was normalized to total protein content.

Assay [3] relates to PGE2 downstream target genes. As to the kind of experiment: Ovarian expression of ovulatory cascade, PG receptor and PG metabolism genes by qPCR in PMSG-primed/hCG+DIDS-treated mice. The assay is classed as in vivo. As for the experimental part:
To characterize the ovulation-blocking effect of PGT at the molecular level, the effect of DIDS on the LH/CGR dependent activities was evaluated. Key representative genes of the ovulatory cascade were studied, including, oocyte maturation genes: amphiregulin (AREG), epiregulin (EREG), progesterone receptor (PR); cumulus expansion genes: tumor necrosis factor alpha-induced protein (TNFAIP6); follicular rupture related genes: disintegrin and metalloproteinase with thrombospondin motifs 1 (ADAMTS1), cathepsin L (CTSL); the ovulatory related genes: follicle stimulating hormone receptor (FSHR) and luteinizing hormone/chorionic gonadotropin receptor (LHCGR); and steroidogenesis related genes: steroidogenic acute regulatory protein (StAR) and cholesterol side cleavage chain (p450SCC). After total RNA was extracted from the ovaries of PMSG-primed/hCG+DIDS-treated mice and converted to cDNA, the expression of genes of interest was quantified by qPCR.
Background: Real-time PCR tracks product formation cycle by cycle.

The target in assay [4] is T1, PGT (Mus musculus, UniProt Q9EPT5). As to the kind of experiment: Ovulated oocyte count in PMSG-primed/hCG-triggered immature female mice. It is filed as in vivo. The arrangement: from tissue; host or cells: whole animal: PMSG-primed/hCG-triggered immature female mice (ovary).
The target in assay [5] is T1, PGT. As to the kind of experiment: Oocyte maturation and cumulus expansion in vivo in mice. The arrangement: from tissue; host or cells: whole animal: PMSG-primed/hCG-triggered immature female mice (ovary).
Description: Ovulated COCs from hCG-treated mice were collected from the ampulla of the oviduct.
Assay [6] deals with T1, PGT. As to the kind of experiment: Ovarian morphology (histology) in superovulated mice.
The nature of assay [7]: Serum progesterone levels (corpus luteum function) in PMSG-primed/hCG-triggered mice. The assay is classed as in vivo. Particulars: concurrent treatment with DIDS, 24 hours post-hCG.
Protocol: In order to assess corpus luteum function, serum progesterone levels were measured in PMSG-primed/hCG-triggered mice in the absence or presence of DIDS.
For assay [8], the system named is PGT transcripts in MGCs. As to the kind of experiment: PGT transcripts (qPCR) in cultured FSH-pretreated human mural granulosa cells. Particulars: for FSK-induced upregulation of PGT expression: then FSK 10 μM 24 hours; for hCG-induced upregulation of PGT expression: then hCG 1U/ml 24 hours. As for the experimental part: FSH-pretreated MGCs were then exposed to vehicle (PBS) or AREG for 24 hours. PGT was quantified by qPCR and normalized to/3-actin expression. Data represent the mean±SEM of three independent experiments.

The test system of assay [9] is whole ovarian PGT transcripts. As to the kind of experiment: Whole ovarian PGT transcripts in PMSG-primed/hCG-triggered immature mouse superovulation model. It is filed as in vivo. Particulars: PMSG for 48 hours.
In assay [10] the target is PGT (Homo sapiens, UniProt Q92959). As to the kind of experiment: PGE2 concentration in media of MGCs by enzyme immunoassay (EIA). It is filed as cell-based. The arrangement: basal media concentration of PGE2: dose or concentration left out as unconfirmed.
Protocol: The concentration of PGE2 in the media was then measured by an enzyme immunoassay (EIA).
The mark [11] stands for this setting: Homo sapiens, read-out: increase in PGT transcripts (fold induction).

Marks after values point to notes of the source that are not given here.

The source of these data is patent publication US20180008569A1, “PROSTAGLANDIN TRANSPORTER INHIBITORS FOR INHIBITING OVULATION” (TEL HASHOMER MEDICAL RESEARCH INFRASTRUCTURE AND SERVICES …, priority 2015, published 2018).

T1 sequence (Q9EPT5 whole entry): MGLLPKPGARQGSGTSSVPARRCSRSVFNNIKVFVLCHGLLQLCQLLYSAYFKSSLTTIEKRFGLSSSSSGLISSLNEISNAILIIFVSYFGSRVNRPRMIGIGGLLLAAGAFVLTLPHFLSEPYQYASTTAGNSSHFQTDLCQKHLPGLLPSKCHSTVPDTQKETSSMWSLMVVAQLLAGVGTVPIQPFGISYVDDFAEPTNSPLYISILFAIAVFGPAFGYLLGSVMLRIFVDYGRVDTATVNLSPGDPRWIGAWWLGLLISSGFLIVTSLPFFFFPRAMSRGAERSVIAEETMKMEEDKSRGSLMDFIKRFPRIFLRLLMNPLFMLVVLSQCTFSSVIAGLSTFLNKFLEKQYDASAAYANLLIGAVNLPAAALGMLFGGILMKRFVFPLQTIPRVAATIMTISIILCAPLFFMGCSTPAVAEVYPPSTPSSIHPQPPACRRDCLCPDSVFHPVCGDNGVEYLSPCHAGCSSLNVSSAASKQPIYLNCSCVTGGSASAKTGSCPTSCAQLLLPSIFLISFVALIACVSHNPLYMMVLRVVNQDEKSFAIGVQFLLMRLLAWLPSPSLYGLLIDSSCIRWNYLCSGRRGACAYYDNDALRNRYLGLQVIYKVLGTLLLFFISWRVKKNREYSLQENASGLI

For `CCCCC[C@H](O)/C=C/[C@H]1[C@H](O)CC(=O)[C@@H]1C/C=C\CCCC(=O)O` [PGE2, Prostaglandin E2], in [1], the “EP4 receptor mRNA expression compared to controls” value was “significant downregulation”. The “intracellular cAMP in response to further PGE2 stimulation” value in assay [2] is “significantly reduced accumulation of intracellular cAMP”.
For the molecule `O=S(=O)(O)c1cc(N=C=S)ccc1C=Cc1ccc(N=C=S)cc1S(=O)(=O)O` [DIDS, 4,4′-Diisothiocyanatostilbene-2,2′-disulfonic acid], in assay [3] (addition of DIDS), the PGDH expression entry is “not affected”, the “downregulation of EP2 by hCG” value is reported as “abolished”, the “reduction of FSHR mRNA in response to hCG” value is “abolished” and the “upregulation by hCG of COX-2” value is given as “inhibited”. Further, in [3] (addition of DIDS), the “upregulation by hCG of EP4” value was “inhibited” and the “upregulation by hCG of PGT” value is recorded as “inhibited”. The “expression of most of the ovulation related transcripts studied (except p450SCC and LHCGR)” value in assay [3] (ovaries of PMSG-primed/hCG+DIDS-treated mice) is listed as “profound inhibition”. Also, the ovulated oocyte count result in assay [4] (different concentrations of DIDS at time of hCG, 16 hours) is “dose-dependent decrements”. Further, in assay [4] (hCG + DIDS 5 mg/kg, 16 hours), the “No. of oocytes in ovulating mice” value is given as 7-77 and the “No. ova/ovulating mice (Mean ± SEM)” value is recorded as 53.5 ± 5.1. In addition, in assay [4] (hCG + DIDS 10 mg/kg, 16 hours), the “No. of oocytes in ovulating mice” value is reported as 10-60 and the “No. ova/ovulating mice (Mean ± SEM)” value is 27.4 ± 6.8. Further, in [4] (hCG + DIDS 20 mg/kg, 16 hours), the “No. of oocytes in ovulating mice” value was 1-51 and the “No. ova/ovulating mice (Mean ± SEM)” value was 22 ± 6.8. In addition, the “No. ova/ovulating mice (Mean ± SEM)” value in assay [4] (hCG + DIDS 50 mg/kg, 16 hours) came out at 9. Besides, the inhibition at 50 mg/kg in assay [4] (mouse, read-out: inhibition of ovulation) is 95.5%. Also, in [5] (DIDS, 24 hours following treatment with hCG), the “cumulus state of COCs” value is reported as “compact cumulus”. Further, in assay [5] (hCG + DIDS), the “oocytes at GV” value is given as 100% (102/102), the “oocytes at MI” value is listed as 0% (0/102) and the “oocytes at MII” value was 0% (0/102). Moreover, in assay [5] (hCG and DIDS 50 mg/kg), the “cumulus state of COCs” value is “compact cumulus”. Besides, the oocyte maturation stage result in assay [5] (hCG+DIDS-treated mice) is “immature and at the GV stage”. For the same molecule, in [5] (lower doses of DIDS), the “cumuli of recovered cumulus-oocyte-complexes” value was “expanded normal-appearing cumuli” and the “denuded oocytes from recovered cumulus-oocyte-complexes” value is listed as “morphologically normal, mature (M2)”. Besides, in assay [6] (hCG+DIDS, 16 hours after hCG), the ovarian morphology result was “numerous unruptured preovulatory follicles with entrapped oocytes”. For the same molecule, the ovarian morphology result in assay [6] (hCG+DIDS, forty hours after hCG injection) is listed as “still contained entrapped oocytes in preovulatory follicles”. Moreover, the serum progesterone levels result in [7] is given as “significant reduction”.
In the case of `C=C[C@@]1(C)CC(=O)[C@]2(O)[C@@]3(C)[C@@H](O)CCC(C)(C)[C@@H]3[C@H](O)[C@H](OC(C)=O)[C@@]2(C)O1` [FSK, forskolin], the fold induction at 10 µM in [8] (setting [11]) was 25.
As to Pregnant mare serum gonadotropin [PMSG], the “level of PGT in the ovaries relative to control (saline)” value in assay [9] is given as 2.3 folds.
Turning to `CCCCCCCCCCCCCC(=O)O[C@@H]1[C@@H](C)[C@@]2(O)[C@@H](C=C(CO)C[C@]3(O)C(=O)C(C)=C[C@@H]23)[C@@H]2C(C)(C)[C@]12OC(C)=O` [PMA, phorbol myristate acetate], in assay [8] (setting [11]), the fold induction at 0.02 µM stood at 11.
`N#CC(=C(/N)Sc1ccccc1N)/C(C#N)=C(\N)Sc1ccccc1N` [U0126]: in assay [8] (pretreatment 10 μM for 1 hour), the “FSK-induced upregulation of PGT expression” value is reported as “markedly inhibited” and the “hCG-induced upregulation of PGT expression” value was “effectively abolished”. Also, in [8] (pretreatment 10 μM for 1 hour, then PMA 20 nM 24 hours), the “PMA-mediated upregulation of PGT transcripts” value was “markedly inhibited”.
For `Cc1c(C2(c3cc(Br)c(O)c(Br)c3C)OS(=O)(=O)c3ccccc32)cc(Br)c(O)c1Br` [BCG, Bromocresol Green], the ovulation entry in assay [4] (BCG at 500 and 350 mg/kg with hCG, 16 hours) is on record as “complete blockade of ovulation”. In addition, the “No. ova/ovulating mice (Mean ± SEM)” value in [4] (hCG + BCG 250 mg/kg, 16 hours) is recorded as 58.4 ± 7.4; in assay [4] (hCG + BCG 300 mg/kg, 16 hours), 1.3*; in assay [4] (hCG + BCG 350 mg/kg, 16 hours), 0*; in assay [4] (hCG + BCG 500 mg/kg, 16 hours), 0*. For the same molecule, the “Range of oocytes in ovulating mice” value was 12-61 in assay [4] (hCG + BCG 250 mg/kg, 16 hours) and 1-2 in [4] (hCG + BCG 300 mg/kg, 16 hours). In [10] (co-treatment hCG 1U/ml + BCG 50 mM, 24 hours), the “increase in the media concentration of PGE2 relative to controls” value is around 3 fold. Moreover, the “basal media concentration of PGE2” value in [10] (no hCG) is reported as “without effect”. In assay [6] (hCG+BCG 350 mg/kg, 16 hours after hCG), the ovarian morphology result is recorded as “un-ruptured follicles with entrapped oocytes”.
As to `O=S(=O)(NCCNC/C=C/c1ccc(Br)cc1)c1cccc2cnccc12` [H89], in assay [8] (pretreatment 10 μM for 1 hour), the “FSK-induced upregulation of PGT expression” value was “largely inhibited” and the “hCG-induced upregulation of PGT expression” value is reported as “largely inhibited”.

B1: amphiregulin (protein, UniProt P31955 100-248, looked up)
Amphiregulin: VIKPKKNKTEGEKSTEKPKRKKKGGKNGKGRRNKKKKNPCTAKFQNFCIHGECRYIENLEVVTCNCHQDYFGERCGEKSMKTHSEDDKDLSKIAVVAVTIFVSAIILAAIGIGIVITVHLWKRYFREYEGETEERRRLRQENGTVHAIA
On to B1, for which the “induction of PGT expression” value in assay [8] (FSH-pretreated MGCs exposed to AREG for 24 hours, vs vehicle (PBS)) turned out to be 3 fold.

What is called inhibition is the percentage by which the read-out fell short of the control.
